± gives the expanded uncertainty stated by the source.
Assays:
[1] = molar heat capacity at constant pressure; conditions: Liquid, thermal relaxation method
[2] = molar heat capacity at constant pressure; xn = mol fraction of the nth substance listed; conditions: Liquid, thermal relaxation method

CO [methanol]
molar heat capacity at constant pressure [J/K/mol], [1]
Conditions	100 kPa	1000 kPa	5000 kPa	10000 kPa	15000 kPa
280 K	77.22 ± 3.2	74.02 ± 3.2	73.7 ± 5.8	–	–
320 K	87.15 ± 1.3	85.87 ± 3.2	84.27 ± 2.6	–	–
360 K	–	97.41 ± 1.9	94.2 ± 1.9	94.52 ± 2.6	97.09 ± 3.8

CO [methanol] + O
molar heat capacity at constant pressure [J/K/mol], [2]
Conditions	x1 = 0.0496	x1 = 0.101	x1 = 0.1936	x1 = 0.2606	x1 = 0.4949	x1 = 0.7943
280 K, 100 kPa	81.21 ± 1.5	82.78 ± 1.6	82.72 ± 1.7	82.56 ± 1.7	79.36 ± 2	77.85 ± 2.3
280 K, 1000 kPa	81.39 ± 1.5	83.75 ± 1.6	85 ± 2.1	85.38 ± 2.2	82.11 ± 2.5	80.76 ± 2.9
280 K, 5000 kPa	82.14 ± 4.1	83.95 ± 4.3	85.2 ± 4.1	84.52 ± 4.3	79.61 ± 5	76.97 ± 5.8
320 K, 100 kPa	80.27 ± 0.75	84.53 ± 0.78	87.9 ± 0.83	89.5 ± 0.87	89.35 ± 1	89.22 ± 1.2
320 K, 1000 kPa	79.52 ± 2.2	83.75 ± 2.3	88.52 ± 2.5	89.72 ± 2.6	89.1 ± 3	87.76 ± 2.9
320 K, 5000 kPa	81.95 ± 1.9	85.5 ± 1.9	89.76 ± 2.1	91.67 ± 2.2	88.6 ± 2.5	87.76 ± 2.9
360 K, 1000 kPa	81.02 ± 1.1	84.72 ± 1.2	90.8 ± 1.2	92.75 ± 1.3	94.34 ± 1.5	94.47 ± 1.8
360 K, 5000 kPa	80.83 ± 1.1	84.53 ± 1.2	90.59 ± 1.2	92.97 ± 1.3	93.59 ± 1.5	94.47 ± 1.8
360 K, 10000 kPa	82.52 ± 1.1	86.28 ± 1.2	92.87 ± 1.2	95.35 ± 1.3	95.09 ± 1.5	95.92 ± 1.8
360 K, 15000 kPa	82.52 ± 2.2	86.67 ± 2.3	92.25 ± 2.5	95.57 ± 2.6	95.58 ± 3	95.63 ± 3.5

— the NIST ThermoML archive (doi:10.1016/j.jct.2006.11.001)
